Assay results as given in patent US20250312499A1, “KISSPEPTIN RECEPTOR (KISS1R) TARGETED THERAPEUTICS AND USES THEREOF” (priority 2024, published 2025).
Numbered stars: 1 amine (or outer) side, 2 acyl side, 3 side chain; on linkers, the order of the positions; unused ones are H or OH. Square brackets hold non-standard residues; d marks the D form. Peptide text beside a SMILES is read from it. * marks the point of attachment. X8 = COCCOCCOCCOCCOCCOCCOCCOCCOCCOCCOCCOCCOCCOCCOCCOCCOCCOCCOCCOCCOCCOCCOCCOCCOCCC(=O)*; DOTA = O=C(O)CN1CCN(CC(=O)O)CCN(CC(=O)*)CCN(CC(=O)O)CC1; Gly(N-(3-F-4-Me-benzyl)) = Cc1ccc(CNCC(=O)*)cc1F; Butanoyl(4-(4-I-phenyl)) = O=C(CCCc1ccc(I)cc1)*; Acetyl(2-(HOCH2CH2OCH2CH2O)) = O=C(COCCOCCO)*; Bpa = N[C@@H](Cc1ccc(C(=O)c2ccccc2)cc1)C(=O)O; Gly(Nα-4-MeO-benzyl) = COc1ccc(CNCC(=O)*)cc1; Butanoyl(4-(4-MePh)) = Cc1ccc(CCCC(=O)*)cc1; Api(1-amidino) = N=C(N)N1CCC(N)(C(=O)O)CC1; Hydrocinnamoyl(4-Me) = Cc1ccc(CCC(=O)*)cc1; HO(CH2CH2O)2CH2CH2CO = O=C(CCOCCOCCO)*; Phe(3-F) = N[C@@H](Cc1cccc(F)c1)C(=O)O; d2Nal = N[C@H](Cc1ccc2ccccc2c1)C(=O)O; Palmitoyl = CCCCCCCCCCCCCCCC(=O)*; Hyp = O=C(O)[C@@H]1C[C@@H](O)CN1; Trx = NC[C@H]1CC[C@H](C(=O)O)CC1; X1 = O=C(CN1CCC(N[*:1])CC1)[*:2]; 4Pal = N[C@@H](Cc1ccncc1)C(=O)O; d4Pal = N[C@H](Cc1ccncc1)C(=O)O; Cha = N[C@@H](CC1CCCCC1)C(=O)O; Api = NC1(C(=O)O)CCNCC1; PEG2 = NCCOCCOCCC(=O)O; Ahx = NCCCCCC(=O)O; azaGly = NNC(=O)O; Sar = CNCC(=O)O

Molecular target: human kisspeptin receptor (Homo sapiens (Human), UniProt Q969F8)
Experiment: Human KISS1R binding assay (membrane competition binding)
Conditions: 90 min at room temperature; competition with 0.2 nM [125I]-metastin (45-54); Flp-In T-Rex 293 kisspeptin membranes; metal complexes nonradioactive Ga, In, Lu; read-out: hKiSSR Binding Ki (90 min)
How it was run: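 Radioligand competition: 0.2 nM [125I]-metastin (45-54) displaced by test ligand (usually 0–10,000 nM) over 90 min at room temperature, pH 7.4 buffer with 0.1% BSA. Receptor source is crude membrane (5–10 μg) from tetracycline-induced Flp-In T-Rex 293 cells. Bound label filtered and counted; Ki from non-linear regression.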

Sequence of human kisspeptin receptor (Q969F8 whole entry): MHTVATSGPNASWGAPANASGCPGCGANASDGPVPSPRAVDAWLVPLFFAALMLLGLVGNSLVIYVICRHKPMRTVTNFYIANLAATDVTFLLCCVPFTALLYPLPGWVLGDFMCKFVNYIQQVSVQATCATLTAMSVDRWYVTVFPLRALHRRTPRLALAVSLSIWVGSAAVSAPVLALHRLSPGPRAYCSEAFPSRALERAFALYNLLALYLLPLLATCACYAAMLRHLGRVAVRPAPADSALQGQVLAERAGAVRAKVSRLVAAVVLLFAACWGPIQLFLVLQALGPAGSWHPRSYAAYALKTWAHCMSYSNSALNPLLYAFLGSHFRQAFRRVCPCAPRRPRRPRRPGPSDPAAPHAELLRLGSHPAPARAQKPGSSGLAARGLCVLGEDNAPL

Compound	Ki [nM]
Cc1ccc(CNCC(=O)N2CCC(NC(=O)[C@H](CC(C)C)NC(=O)NNC(=O)[C@H](Cc3cccc(F)c3)NC(=O)[C@@H](NC(=O)[C@H](CC(N)=O)NC(=O)[C@H](CCCCNC(=O)CN3CCN(CC(=O)O)CCN(CC(=O)O)CCN(CC(=O)O)CC3)NC(=O)[C@@H](Cc3ccc(O)cc3)NC(=O)COCCOCCO)[C@@H](C)O)(C(=O)N[C@@H](Cc3c[nH]c4ccccc34)C(N)=O)CC2)cc1F [Compound 64] ({Acetyl(2-(HOCH2CH2OCH2CH2O))}-[dY]K(DOTA)NT[Phe(3-F)][azaGly]L[Api](Gly(N-(3-F-4-Me-benzyl)))W-NH2)	< 10
CC(C)C[C@H](NC(=O)[C@H](Cc1ccccc1)NC(=O)[C@H](CC(N)=O)NC(=O)[C@H](CCCNC(=N)N)NC(=O)[C@H](CC(N)=O)NC(=O)[C@@H](NC(=O)CCCCCNC(=O)CN1CCN(CC(=O)O)CCN(CC(=O)O)CCN(CC(=O)O)CC1)[C@@H](C)O)C(=O)NC1(C(=O)N[C@@H](Cc2ccccc2)C(N)=O)CCN(C(=N)N)CC1 [Compound 199] ({DOTA-Ahx}-TNRNFL[Api(1-amidino)]F-NH2)	> 100
Cc1ccc(CCC(=O)NCCOCCOCCC(=O)N[C@H](Cc2ccc(O)cc2)C(=O)N[C@@H](CCCCNC(=O)CN2CCN(CC(=O)O)CCN(CC(=O)O)CCN(CC(=O)O)CC2)C(=O)N[C@@H](CC(N)=O)C(=O)N[C@H](C(=O)N[C@@H](Cc2ccccc2)C(=O)NNC(=O)N[C@@H](CC(C)C)C(=O)NC2(C(=O)N[C@@H](Cc3c[nH]c4ccccc34)C(N)=O)CCN(C(=N)N)CC2)[C@@H](C)O)cc1 [Compound 195] ({Hydrocinnamoyl(4-Me)-PEG2}-[dY]K(DOTA)NTF[azaGly]L[Api(1-amidino)]W-NH2)	< 10
Cc1ccc(CNCC(=O)N2CCC(NC(=O)[C@H](CC(C)C)NC(=O)NNC(=O)[C@H](Cc3ccccc3)NC(=O)[C@@H](NC(=O)[C@H](CC(N)=O)NC(=O)[C@H](CCCCNC(=O)CN3CCN(CC(=O)O)CCN(CC(=O)O)CCN(CC(=O)O)CC3)NC(=O)CCOCCOCCO)[C@@H](C)O)(C(=O)N[C@@H](Cc3ccncc3)C(N)=O)CC2)cc1F [Compound 253] ({HO(CH2CH2O)2CH2CH2CO}-K(DOTA)NTF[azaGly]L[Api](Gly(N-(3-F-4-Me-benzyl)))[4Pal]-NH2)	< 10
Cc1ccc(CNCC(=O)N2CCC(NC(=O)[C@H](CC(C)C)NC(=O)NNC(=O)[C@H](CC3CCCCC3)NC(=O)[C@@H](NC(=O)[C@H](CC(N)=O)NC(=O)[C@@H](Cc3ccncc3)NC(=O)[C@@H](Cc3ccc(O)cc3)NC(=O)CCCCCNC(=O)CN3CCN(CC(=O)O)CCN(CC(=O)O)CCN(CC(=O)O)CC3)[C@@H](C)O)(C(=O)N[C@@H](Cc3c[nH]c4ccccc34)C(N)=O)CC2)cc1F [Compound 316] ({DOTA-Ahx}-[dY][d4Pal]NT[Cha][azaGly]L[Api](Gly(N-(3-F-4-Me-benzyl)))W-NH2)	< 10
Cc1ccc(CCC(=O)NCCOCCOCCC(=O)N[C@H](Cc2ccc(O)cc2)C(=O)N[C@@H](CCCCNC(=O)CN2CCN(CC(=O)O)CCN(CC(=O)O)CCN(CC(=O)O)CC2)C(=O)N[C@@H](CC(N)=O)C(=O)N[C@H](C(=O)N[C@@H](CC2CCCCC2)C(=O)NNC(=O)N[C@@H](CC(C)C)C(=O)NC2(C(=O)N[C@@H](Cc3c[nH]c4ccccc34)C(N)=O)CCN(C(=N)N)CC2)[C@@H](C)O)cc1 [Compound 326] ({Hydrocinnamoyl(4-Me)-PEG2}-[dY]K(DOTA)NT[Cha][azaGly]L[Api(1-amidino)]W-NH2)	< 10
CNCC(=O)N1CCC(NC(=O)[C@H](CC(C)C)NC(=O)NNC(=O)[C@H](Cc2ccccc2)NC(=O)[C@@H](NC(=O)[C@H](CC(N)=O)NC(=O)[C@@H](Cc2ccc3ccccc3c2)NC(=O)[C@@H](Cc2ccc(O)cc2)NC(=O)CCCc2ccc(I)cc2)[C@@H](C)O)(C(=O)N[C@@H](Cc2ccccc2)C(N)=O)CC1 [Compound 398] ({Butanoyl(4-(4-I-phenyl))}-[dY][d2Nal]NTF[azaGly]L[Api](Sar)F-NH2)	< 10
Cc1ccc(CNCC(=O)N2CCC(NC(=O)[C@H](CC(C)C)n3cc([C@H](Cc4ccccc4)NC(=O)[C@H](N)CCCCNC(=O)CN4CCN(CC(=O)O)CCN(CC(=O)O)CCN(CC(=O)O)CC4)nn3)(C(=O)N[C@@H](Cc3c[nH]c4ccccc34)C(N)=O)CC2)cc1F [Compound 39]	> 100
CNCC(=O)N1CCC(NC(=O)[C@H](CC(C)C)NC(=O)NNC(=O)[C@H](CC2CCCCC2)NC(=O)[C@@H](NC(=O)[C@H](CC(N)=O)NC(=O)[C@H](CCCCNC(=O)CN2CCN(CC(=O)O)CCN(CC(=O)O)CCN(CC(=O)O)CC2)NC(=O)[C@@H](Cc2ccc(O)cc2)NC(=O)CCOCCOCCNC(=O)CCc2ccc(C)cc2)[C@@H](C)O)(C(=O)N[C@H](Cc2c[nH]c3ccccc23)C(N)=O)CC1 [Compound 356] ({Hydrocinnamoyl(4-Me)-PEG2}-[dY]K(DOTA)NT[Cha][azaGly]L[Api](Sar)[dW]-NH2)	< 10
CC(C)C[C@H](NC(=O)NNC(=O)[C@H](Cc1ccccc1)NC(=O)[C@@H](NC(=O)[C@H](CC(N)=O)NC(=O)[C@@H]1C[C@@H](O)CN1C(=O)[C@@H](Cc1ccc(O)cc1)NC(=O)CCCCCNC(=O)CN1CCN(CC(=O)O)CCN(CC(=O)O)CCN(CC(=O)O)CC1)[C@@H](C)O)C(=O)NC1(C(=O)N[C@@H](Cc2c[nH]c3ccccc23)C(N)=O)CCN(C(=N)N)CC1 [Compound 311] ({DOTA-Ahx}-[dY][Hyp]NTF[azaGly]L[Api(1-amidino)]W-NH2)	< 10
Cc1ccc(CCCC(=O)N2CCC(NC(=O)[C@H](CC(C)C)NC(=O)NNC(=O)[C@H](Cc3ccccc3)NC(=O)CCCCCNC(=O)CN3CCN(CC(=O)O)CCN(CC(=O)O)CCN(CC(=O)O)CC3)(C(=O)N[C@@H](Cc3c[nH]c4ccccc34)C(N)=O)CC2)cc1 [Compound 7] ({DOTA-Ahx}-F[azaGly]L[Api](Butanoyl(4-(4-MePh)))W-NH2)	10 to 100
COCCOCCOCCOCCOCCOCCOCCOCCOCCOCCOCCOCCOCCOCCOCCOCCOCCOCCOCCOCCOCCOCCOCCOCCOCCC(=O)N[C@H](Cc1ccc(O)cc1)C(=O)N[C@@H](CCCCNC(=O)CN1CCN(CC(=O)O)CCN(CC(=O)O)CCN(CC(=O)O)CC1)C(=O)N[C@@H](CC(N)=O)C(=O)N[C@H](C(=O)N[C@@H](Cc1ccccc1)C(=O)NNC(=O)N[C@@H](CC(C)C)C(=O)NC1(C(=O)N[C@@H](Cc2c[nH]c3ccccc23)C(N)=O)CCN(C(=N)N)CC1)[C@@H](C)O [Compound 182] (X8-[dY]K(DOTA)NTF[azaGly]L[Api(1-amidino)]W-NH2)	< 10
Cc1ccc(CNCC(=O)N2CCC(NC(=O)[C@H](CC(C)C)NC(=O)NNC(=O)[C@H](Cc3ccccc3)NC(=O)CN3CCC(NC(=O)CN4CCN(CC(=O)O)CCN(CC(=O)O)CCN(CC(=O)O)CC4)CC3)(C(=O)N[C@@H](Cc3ccncc3)C(N)=O)CC2)cc1F [Compound 246] ({DOTA}-[X1]F[azaGly]L[Api](Gly(N-(3-F-4-Me-benzyl)))[4Pal]-NH2)	10 to 100
Cc1ccc(CNCC(=O)N2CCC(NC(=O)[C@H](CC(C)C)NC(=O)NNC(=O)[C@H](Cc3cccc(F)c3)NC(=O)[C@@H](NC(=O)[C@H](CC(N)=O)NC(=O)[C@H](CCC(=O)O)NC(=O)[C@H]3CC[C@H](CNC(=O)CN4CCN(CC(=O)O)CCN(CC(=O)O)CCN(CC(=O)O)CC4)CC3)[C@@H](C)O)(C(=O)N[C@@H](Cc3c[nH]c4ccccc34)C(N)=O)CC2)cc1F [Compound 160] ({DOTA-Trx}-ENT[Phe(3-F)][azaGly]L[Api](Gly(N-(3-F-4-Me-benzyl)))W-NH2)	< 10
CNCC(=O)N1CCC(NC(=O)[C@H](CC(C)C)NC(=O)NNC(=O)[C@H](CC2CCCCC2)NC(=O)[C@@H](NC(=O)[C@H](CC(N)=O)NC(=O)[C@@H](CCCCNC(=O)CN2CCN(CC(=O)O)CCN(CC(=O)O)CCN(CC(=O)O)CC2)NC(=O)[C@@H](Cc2ccc(O)cc2)NC(=O)CCOCCOCCNC(=O)CCc2ccc(C)cc2)[C@@H](C)O)(C(=O)N[C@H](Cc2c[nH]c3ccccc23)C(N)=O)CC1 [Compound 358] ({Hydrocinnamoyl(4-Me)-PEG2}-[dY][dK](DOTA)NT[Cha][azaGly]L[Api](Sar)[dW]-NH2)	< 10
Cc1ccc(CNCC(=O)N2CCC(NC(=O)[C@H](CC(C)C)NC(=O)CNC(=O)[C@H](Cc3ccccc3)NC(=O)CCCCCNC(=O)CN3CCN(CC(=O)O)CCN(CC(=O)O)CCN(CC(=O)O)CC3)(C(=O)N[C@@H](Cc3c[nH]c4ccccc34)C(N)=O)CC2)cc1F [Compound 10] ({DOTA-Ahx}-FGL[Api](Gly(N-(3-F-4-Me-benzyl)))W-NH2)	< 10
COc1ccc(CNCC(=O)N2CCC(NC(=O)[C@H](CC(C)C)NC(=O)NNC(=O)[C@H](Cc3ccccc3)NC(=O)[C@@H](NC(=O)[C@H](CC(N)=O)NC(=O)[C@H](CCC(=O)O)NC(=O)CCCCCNC(=O)CN3CCN(CC(=O)O)CCN(CC(=O)O)CCN(CC(=O)O)CC3)[C@@H](C)O)(C(=O)N[C@@H](Cc3ccccc3)C(N)=O)CC2)cc1 [Compound 236] ({DOTA-Ahx}-ENTF[azaGly]L[Api](Gly(Nα-4-MeO-benzyl))F-NH2)	< 10
CNCC(=O)N1CCC(NC(=O)[C@H](CC(C)C)NC(=O)NNC(=O)[C@H](Cc2ccccc2)NC(=O)[C@@H](NC(=O)[C@H](CC(N)=O)NC(=O)[C@H](Cc2ccc(C(=O)c3ccccc3)cc2)NC(=O)[C@@H](Cc2ccc(O)cc2)NC(=O)CCCCCNC(=O)CN2CCN(CC(=O)O)CCN(CC(=O)O)CCN(CC(=O)O)CC2)[C@@H](C)O)(C(=O)N[C@@H](Cc2c[nH]c3ccccc23)C(N)=O)CC1 [Compound 346] ({DOTA-Ahx}-[dY][Bpa]NTF[azaGly]L[Api](Sar)W-NH2)	< 10
CCCCCCCCCCCCCCCC(=O)N[C@H](Cc1ccc(O)cc1)C(=O)N[C@@H](CCCCNC(=O)CN1CCN(CC(=O)O)CCN(CC(=O)O)CCN(CC(=O)O)CC1)C(=O)N[C@@H](CC(N)=O)C(=O)N[C@H](C(=O)N[C@@H](Cc1ccccc1)C(=O)NNC(=O)N[C@@H](CC(C)C)C(=O)NC1(C(=O)N[C@@H](Cc2ccc(O)cc2)C(N)=O)CCN(C(=N)N)CC1)[C@@H](C)O [Compound 330] (Palmitoyl-[dY]K(DOTA)NTF[azaGly]L[Api(1-amidino)]Y-NH2)	< 10
